This is an account of results in patent US20250188082A1, “Use of Hypoxanthine Compound In Preparation of Drug For Treating Pulmonary Fibrosis” (Sichuan Yiasuo Pharmaceutical Technology Co., Ltd., priority 2022, published 2025).

Format in all cases: in vivo, C57BL/6 mice
Assay [1] concerns influenza A virus-induced pulmonary fibrosis model (FM1 strain of influenza A (H1N1) virus). Put plainly: Influenza A virus-induced pulmonary fibrosis model. The following applies: 120 mg/kg/d intragastric, 14 days; for Ashcroft scores: influenza A virus + bleomycin, lung tissue HE; for IL-1β / IL-6 / NF-κB / TNF-α: serum, influenza A (H1N1) FM1 + bleomycin, from two weeks after model. The source says:
Experimental method: an in-vivo influenza A virus-induced pulmonary fibrosis model was established: C57BL/6 mice (with weights being 22-25 g) were randomly and evenly divided into a plurality of groups, including blank control group, model group, Nintedanib positive control group, hypoxanthine analogue A group, hypoxanthine analogue B group, hypoxanthine analogue C group, compound 1 group, compound 2 group . . . compound 12 group, with 9 mice in each group. On Day 1, the mice in blank control group were instilled with normal saline nasally, and the mice in other groups were all infected with a FM1 strain of an influenza A (H1N1) virus 30 (μL) through nasal instillation. On Day 2, the mice received 5 mg/kg bleomycin through tracheas to induce their pulmonary fibrosis. After the model was established for two weeks, the mice in each group were intragastrically administrated for intervention for consecutive 14 days; the mice in blank control group and model group intragastrically received the same dosage of the normal saline as those in drug groups; the mice in Nintedanib positive control group received Nintedanib (120 mg/kg); the mice in hypoxanthine analogue A group, hypoxanthine analogue B group and hypoxanthine analogue C group respectively received hypoxanthine analogue A (120 mg/kg/d), hypoxanthine analogue B (120 mg/kg/d) and hypoxanthine analogue C (120 mg/kg/d); and the mice in compound 1 group, compound 2 group . . . compound 12 group respectively received compound 1 (120 mg/kg/d), compound 2 (120 mg/kg/d) . . . compound 12 (120 mg/kg/d) prepared in example 1. After administration for consecutive 14 days, the mice were observed every day, and their weights and death conditions were recorded. After administration, blood was taken from eyeballs for immediately detecting the expression levels of NF-κB, TNF-α, IL-1 and IL-6 in serum, and lung tissues were taken for HE detection and Ashcroft scoring.

Assay [2] has as its system bleomycin-induced pulmonary fibrosis model. Nature of the assay: Comparison with comparative drugs: bleomycin-induced model, hydroxyproline and TGF-β. The following applies: 120 mg/kg/d intragastric, twice every day, 14 days, from two weeks after model; Day 15.
Assay [3] concerns novel coronavirus-induced pulmonary fibrosis model (COVID-19 novel coronavirus strains). Put plainly: Novel coronavirus-induced pulmonary fibrosis model. Conditions: 120 mg/kg/d intragastric, 14 days; for Ashcroft scores: novel coronavirus + bleomycin, lung tissue HE; for IL-1β / IL-6 / NF-κB / TNF-α: serum, COVID-19 novel coronavirus + bleomycin, from two weeks after model. The source says:
Experimental method: an in-vivo novel coronavirus-induced pulmonary fibrosis model was established: C57BL/6 mice (with weights being 22-25 g) were randomly and evenly divided into a plurality of groups, including blank control group, model group, Nintedanib positive control group, hypoxanthine analogue A group, hypoxanthine analogue B group, hypoxanthine analogue C group, compound 1 group, a compound 2 group . . . compound 12 group, with 9 mice in each group. On Day 1, the mice in blank control group were instilled with normal saline nasally, and the mice in other groups were all infected with COVID-19 novel coronavirus strains (30 μL) through nasal instillation. On Day 2, the mice received 5 mg/kg bleomycin through tracheas to induce their pulmonary fibrosis. After the model was established for two weeks, the mice in each group were intragastrically administrated for intervention for consecutive 14 days; the mice in blank control group and model group intragastrically received the same dosage of normal saline as those in drug groups; the mice in Nintedanib positive control group received Nintedanib (120 mg/kg); the mice in hypoxanthine analogue A group, hypoxanthine analogue B group and hypoxanthine analogue C group respectively received hypoxanthine analogue A (120 mg/kg/d), hypoxanthine analogue B (120 mg/kg/d) and hypoxanthine analogue C (120 mg/kg/d); and the mice in compound 1 group, compound 2 group . . . compound 12 group respectively received compound 1 (120 mg/kg/d), compound 2 (120 mg/kg/d) . . . compound 12 (120 mg/kg/d) prepared in example 1. After administration for consecutive 14 days, the mice were observed every day, and their weights and death conditions were recorded. After administration, blood was taken from eyeballs for immediately detecting the expression levels of NF-κB, TNF-α, IL-1 and IL-6 in serum, and lung tissues were taken for HE detection and Ashcroft scoring.

As to `CC(C)n1cnc2nc[nH]c(=O)c21` [Compound 6], in assay [1], the Ashcroft scores came to 1.26, the IL-1β is 28.5 pg/mL, the IL-6 came out at 66.1 pg/mL and the NF-κB was determined as 27.8 pg/mL. Moreover, the TNF-α in assay [1] came out at 90.3 pg/mL. In assay [2], the “Hydroxyproline in bronchoalveolar lavage fluids” value is 0.68 ± 0.07 µg/mg, the “Hydroxyproline in lung tissues” value was found to be 1.46 ± 0.07 µg/mg, the “TGF-β in bronchoalveolar lavage fluids” value was 3.91 ± 0.18 µg/L and the “TGF-β in lung tissues” value was found to be 24.18 ± 2.14 µg/L. Besides, in assay [3], the Ashcroft scores stood at 1.34, the IL-1β was 38.7 pg/mL, the IL-6 is 67.1 pg/mL and the NF-κB is 21.2 pg/mL. For the same compound, the TNF-α in assay [3] worked out at 68.3 pg/mL.

Regarding `COc1ncnc2c1ncn2C(C)C` [Compound 7], in assay [1], the Ashcroft scores came out at 1.28, the IL-1β was 29.0 pg/mL, the IL-6 is recorded as 65.3 pg/mL and the NF-κB was determined as 26.4 pg/mL. For the same compound, in assay [1], the TNF-α is 91.2 pg/mL. Also, in assay [2], the “Hydroxyproline in bronchoalveolar lavage fluids” value stood at 0.69 ± 0.08 µg/mg, the “Hydroxyproline in lung tissues” value came to 1.42 ± 0.14 µg/mg, the “TGF-β in bronchoalveolar lavage fluids” value is 4.02 ± 0.15 µg/L and the “TGF-β in lung tissues” value stood at 25.15 ± 2.53 µg/L. Further, in assay [3], the Ashcroft scores was 1.15, the IL-1β is reported as 39.9 pg/mL, the IL-6 turned out to be 66.4 pg/mL and the NF-κB came to 24.6 pg/mL. For the same compound, the TNF-α in assay [3] is given as 67.5 pg/mL.

Turning to `CCOc1ncnc2c1ncn2C(C)C` [Compound 8], in assay [1], the Ashcroft scores stood at 1.28, the IL-1β worked out at 28.6 pg/mL, the IL-6 stood at 66.0 pg/mL and the NF-κB was 26.8 pg/mL. Further, the TNF-α in assay [1] worked out at 89.9 pg/mL. Further, in assay [2], the “Hydroxyproline in bronchoalveolar lavage fluids” value worked out at 0.72 ± 0.06 µg/mg, the “Hydroxyproline in lung tissues” value is 1.47 ± 0.10 µg/mg, the “TGF-β in bronchoalveolar lavage fluids” value came to 4.06 ± 0.18 µg/L and the “TGF-β in lung tissues” value worked out at 25.17 ± 2.35 µg/L. For the same compound, in assay [3], the Ashcroft scores is given as 1.24, the IL-1β is listed as 38.4 pg/mL, the IL-6 was determined as 68.2 pg/mL and the NF-κB is given as 23.4 pg/mL. Further, the TNF-α in assay [3] was 66.7 pg/mL.

`CCCOc1ncnc2c1ncn2C(C)C` [Compound 9]: in assay [1], the Ashcroft scores worked out at 1.33, the IL-1β worked out at 28.4 pg/mL, the IL-6 came to 65.8 pg/mL and the NF-κB turned out to be 27.1 pg/mL. For the same compound, the TNF-α in assay [1] worked out at 91.1 pg/mL. Besides, in assay [2], the “Hydroxyproline in bronchoalveolar lavage fluids” value amounted to 0.73 ± 0.09 µg/mg, the “Hydroxyproline in lung tissues” value was 1.41 ± 0.09 µg/mg, the “TGF-β in bronchoalveolar lavage fluids” value was determined as 4.05 ± 0.14 µg/L and the “TGF-β in lung tissues” value worked out at 25.65 ± 2.16 µg/L. Also, in assay [3], the Ashcroft scores is on record as 1.34, the IL-1β worked out at 39.6 pg/mL, the IL-6 is listed as 69.1 pg/mL and the NF-κB turned out to be 22.9 pg/mL. Also, the TNF-α in assay [3] worked out at 68.8 pg/mL.

On to `CC(C)Oc1ncnc2c1N(C(C)C)CN2C(C)C` [Compound 10], for which, in assay [1], the Ashcroft scores was determined as 1.30, the IL-1β worked out at 29.3 pg/mL, the IL-6 is reported as 64.9 pg/mL and the NF-κB turned out to be 27.7 pg/mL. Further, in assay [1], the TNF-α is recorded as 89.6 pg/mL. For the same compound, in assay [2], the “Hydroxyproline in bronchoalveolar lavage fluids” value was 0.74 ± 0.06 µg/mg, the “Hydroxyproline in lung tissues” value stood at 1.37 ± 0.08 µg/mg, the “TGF-β in bronchoalveolar lavage fluids” value turned out to be 4.21 ± 0.18 µg/L and the “TGF-β in lung tissues” value was determined as 24.12 ± 2.25 µg/L. Moreover, in assay [3], the Ashcroft scores came out at 1.67, the IL-1β is on record as 38.1 pg/mL, the IL-6 turned out to be 67.5 pg/mL and the NF-κB is given as 26.5 pg/mL. Also, the TNF-α in assay [3] is recorded as 68.9 pg/mL.
